{
  "source": "paper PMC8596578",
  "about": "“Structural Basis for The Recognition of Deaminated Nucleobases by An Archaeal DNA Polymerase” (Chembiochem, 2021)",
  "target": "T1, KOD DNA polymerase (exonuclease deficient mutant D141A, E143A) (Thermococcus kodakarensis, UniProt P77933, D141A/E143A)",
  "T1 construct": "gene pol; exonuclease-deficient polymerase, codon-optimized, pET24a (NdeI/NotI), E. coli BL21(DE3); intein-free mature protein",
  "experiment": "X-ray crystal structure of closed ternary complex",
  "type": "binding",
  "details": "primer/template DNA (21 nt template, with canonical bases in KOD-21nt or uracil at +6 in KOD-U); polymerase active site, Mg2+ and Mn2+; pH 7.5 (KOD-21nt) or 6.5 (KOD-U)",
  "data": [
    {"compound": "Nc1ncnc2c1ncn2[C@H]1C[C@H](O)[C@@H](COP(=O)(O)OP(=O)(O)OP(=O)(O)O)O1", "note": "[dATP]", "values": [
      {"measurement": "X-ray crystal structure of closed ternary complex", "result": "closed ternary complex, with dATP and three metal ions"}
    ]}
  ]
}
